Results: ChEMBL document CHEMBL2385046, “Dihydrooxazines As Inhibitors of BACE-1 or BACE-2” (ACS Med Chem Lett, 2013)

How the values were obtained:
Rattus norvegicus [1] = experiment: Antialzheimer activity in Sprague-Dawley rat assessed as lowering of amyloid beta level in CSF at 10 mg/kg, po after 4 hrs relative to vehicle-treated control; format: functional
Rattus norvegicus [2] = experiment: Antialzheimer activity in Sprague-Dawley rat assessed as lowering of amyloid beta level in forebrain at 10 mg/kg, po after 4 hrs relative to vehicle-treated control; format: functional
Beta-secretase (BACE) = Beta-secretase (BACE) (Homo sapiens, UniProt Q9Y5Z0+P56817); experiment: Inhibition of BACE1/BACE2 (unknown origin) transfected in CHO cells assessed as release of amyloid beta (1 to 40) after 24 hrs by immunoassay; format: cell-based
Beta-secretase 1 = Beta-secretase 1 (Homo sapiens, UniProt P56817); experiment: Inhibition of recombinant human BACE1 extracellular domain expressed in baculovirus using Q-C(HS03)-lle-Asp-Leu-Ala-Val-Leu-Asp-HN-CH2-CH2-Mca as substrate incubated for 1 hr measured every 1 min for 15 mins by fluorescence assay
Beta-secretase 2 = molecular target: T1, Beta-secretase 2 (Homo sapiens, UniProt Q9Y5Z0); experiment: Inhibition of recombinant human BACE2 extracellular domain expressed in baculovirus using Q-C(HS03)-lle-Asp-Leu-Ala-Val-Leu-Asp-HN-CH2-CH2-Mca as substrate incubated for 1 hr measured every 1 min for 15 mins by fluorescence assay
T1 sequence (Q9Y5Z0 whole entry): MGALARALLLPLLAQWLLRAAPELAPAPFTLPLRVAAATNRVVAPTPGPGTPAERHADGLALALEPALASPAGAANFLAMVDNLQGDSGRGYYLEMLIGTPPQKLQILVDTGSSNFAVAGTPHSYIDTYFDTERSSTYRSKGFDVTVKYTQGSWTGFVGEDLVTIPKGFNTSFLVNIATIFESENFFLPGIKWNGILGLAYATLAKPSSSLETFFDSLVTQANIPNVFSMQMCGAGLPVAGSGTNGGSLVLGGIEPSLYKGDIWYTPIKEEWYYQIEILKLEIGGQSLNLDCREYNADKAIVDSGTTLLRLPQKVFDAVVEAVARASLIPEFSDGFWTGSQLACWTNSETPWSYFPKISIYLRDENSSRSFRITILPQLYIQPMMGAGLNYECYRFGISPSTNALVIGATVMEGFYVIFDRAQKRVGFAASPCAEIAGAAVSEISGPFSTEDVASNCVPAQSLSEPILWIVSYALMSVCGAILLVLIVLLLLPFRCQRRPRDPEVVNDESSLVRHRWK

Sequence of Beta-secretase 1 (P56817 whole entry, the tested form may be a part): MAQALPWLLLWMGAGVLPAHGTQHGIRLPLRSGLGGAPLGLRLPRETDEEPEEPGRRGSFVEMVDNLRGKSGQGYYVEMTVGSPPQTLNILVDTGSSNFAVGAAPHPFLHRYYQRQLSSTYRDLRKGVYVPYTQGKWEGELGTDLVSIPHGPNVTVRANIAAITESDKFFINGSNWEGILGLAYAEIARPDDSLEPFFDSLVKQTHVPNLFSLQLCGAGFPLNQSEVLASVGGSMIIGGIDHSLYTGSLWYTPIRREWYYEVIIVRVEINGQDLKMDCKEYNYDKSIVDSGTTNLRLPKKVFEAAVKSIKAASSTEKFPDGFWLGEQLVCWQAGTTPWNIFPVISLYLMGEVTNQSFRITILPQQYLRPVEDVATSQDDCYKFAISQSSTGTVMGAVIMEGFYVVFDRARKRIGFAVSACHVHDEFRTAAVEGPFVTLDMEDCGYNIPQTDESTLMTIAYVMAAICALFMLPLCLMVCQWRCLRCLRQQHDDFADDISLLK

Row | Compound | Activity (Rattus norvegicus [1]) [%] | Activity (Rattus norvegicus [2]) [%] | IC50 (Beta-secretase (BACE)) [µM] | IC50 (Beta-secretase 1) [nM] | IC50 (Beta-secretase 2) [nM]
1 | CC1(C)OC(N)=N[C@](C)(c2nc(NC(=O)c3ncc(C#N)cc3Cl)ccc2F)C1(F)F | -35.3 | -20 |  |  | 
2 | C[C@]1(c2nc(NC(=O)c3ncc(C(F)(F)F)cc3Cl)ccc2F)N=C(N)OCC1(F)F | -67.9 | -63.6 |  |  | 
3 | C[C@]1(c2nc(NC(=O)c3nn(C(F)F)cc3Cl)ccc2F)N=C(N)OCC1(F)F | -55.2 | -46.6 | 0.013 |  | 
4 | C[C@]1(c2nc(NC(=O)c3ccc(C#N)cn3)ccc2F)N=C(N)OCC1(F)F |  |  | 0.007 | 12 | 66
5 | C[C@]1(c2nc(NC(=O)c3ncc(C#N)cc3Cl)ccc2F)N=C(N)OCC1(F)F | -70.7 | -67.1 | 0.008 |  | 
6 | C[C@]1(c2nc(NC(=O)c3ncc(OCC(F)F)nc3N)ccc2F)N=C(N)OCC1(F)F |  |  | 0.44 |  | 
7 | C[C@]1(c2nc(NC(=O)c3ncc(Cl)cc3Cl)ccc2F)N=C(N)OCC1(F)F |  |  | 0.012 |  | 
